Results published in patent publication US20230233576A1, “ECLITASERTIB FOR USE IN TREATING CONDITIONS INVOLVING SYSTEMIC HYPERINFLAMMATORY RESPONSE” (priority 2020, published 2023).

Test system: adult participants hospitalized for severe COVID-19
Experiment: Phase 1b severe COVID-19 study: adverse events and deaths
Assay type: in vivo, human
Excerpt: Safety evaluation was based on adverse events (Aes) including serious adverse events (SAEs) and adverse events of special interest (AESIs) (i.e., pregnancy, symptomatic overdose with IMP. Alanine aminotransferase [ALT] increase, and anemia), and treatment-emergent adverse events (TEAEs) leading to treatment discontinuation.
The primary focus of AE reporting was on treatment emergent adverse events (TEAEs). Treatment emergent adverse events were Aes that were not present at baseline or represented the exacerbation of a pre-existing condition during the on-treatment period (treatment-emergent period), defined as the time from the first administration of the IMP up to and including the day of last dose of study drug plus 5 days.
All adverse events were coded to a “preferred term (PT)”, “high-level term (HLT)”, “high-level group term (HLGT)”, and associated primary SOC using Medical Dictionary for Regulatory Activities (MedDRA) version 23.1.
The number and cumulative incidence rate of deaths [%] during the on-study period were computed by treatment group: number of deaths divided by the number of participants. Kaplan-Meier plot for time to death was presented by treatment group.

[1] = 600 mg (N = 47), Safety population

CN1C(=O)[C@@H](NC(=O)c2nnc(Cc3ccccc3)[nH]2)COc2cccnc21 [RIPK1 Inhibitor, (S)-5-benzyl-N-(5-methyl-4-oxo-2,3,4,5-tetrahydropyrido[3,2-b][1,4]oxazepin-3-yl)-4H-1,2,4-triazole-3-carboxamide]
0: TEAE, PT Blood pressure increased: number of participants [1] | TEAE, PT Cardiac arrest: number of participants [1] | TEAE, PT Cerebral ischaemia: number of participants [1] | TEAE, PT Cholelithiasis: number of participants [1] | TEAE, PT Dyspepsia: number of participants [1] | TEAE, PT Encephalopathy: number of participants [1] | TEAE, PT Furuncle: number of participants [1] | TEAE, PT Gastritis: number of participants [1] | TEAE, PT Gastrooesophageal sphincter insufficiency: number of participants [1] | TEAE, PT Metabolic acidosis: number of participants [1] | TEAE, PT Noninfective bronchitis: number of participants [1] | TEAE, PT Oesophageal ulcer: number of participants [1] | TEAE, PT Oesophagitis: number of participants [1] | TEAE, PT Ovarian cyst: number of participants [1] | TEAE, PT Pleural effusion: number of participants [1] | TEAE, PT Pneumomediastinum: number of participants [1] | TEAE, PT Pneumonia: number of participants [1] | TEAE, PT Pneumoperitoneum: number of participants [1] | TEAE, PT Pneumothorax: number of participants [1] | TEAE, PT Procedural pneumothorax: number of participants [1] | TEAE, PT Psychomotor hyperactivity: number of participants [1]
1: TEAE, PT Anaemia: number of participants [1] | TEAE, PT Anxiety disorder: number of participants [1] | TEAE, PT Arterial injury: number of participants [1] | TEAE, PT Aspartate aminotransferase increased: number of participants [1] | TEAE, PT Back pain: number of participants [1] | TEAE, PT Bacterial infection: number of participants [1] | TEAE, PT Chest discomfort: number of participants [1] | TEAE, PT Constipation: number of participants [1] | TEAE, PT Dehydration: number of participants [1] | TEAE, PT Drug hypersensitivity: number of participants [1] | TEAE, PT Dyspnoea: number of participants [1] | TEAE, PT Emphysema: number of participants [1] | TEAE, PT Fatigue: number of participants [1] | TEAE, PT Flatulence: number of participants [1] | TEAE, PT Hyperglycaemia: number of participants [1] | TEAE, PT Hypertension: number of participants [1] | TEAE, PT Hypoglycaemia: number of participants [1] | TEAE, PT Hypophosphataemia: number of participants [1] | TEAE, PT Nausea: number of participants [1] | TEAE, PT Non-cardiac chest pain: number of participants [1] | TEAE, PT Oropharyngeal pain: number of participants [1] | TEAE, PT Peripheral artery thrombosis: number of participants [1] | TEAE, PT Pneumonia bacterial: number of participants [1] | TEAE, PT Pseudomembranous colitis: number of participants [1] | TEAE, PT Pseudomonas infection: number of participants [1] | TEAE, PT Pulmonary embolism: number of participants [1]
0 n (%): Participants with TEAE(s) (SAE): PT Cardiac arrest [1] | Participants with TEAE(s) (SAE): PT Respiratory failure [1] | Participants with TEAE(s) (SAE): SOC CARDIAC DISORDERS [1]
(12.8) %: TEAE, PT Alanine aminotransferase increased: percentage of participants [1]
3 (6.4) n (%): Participants with TEAE(s) (SAE): SOC INFECTIONS AND INFESTATIONS [1]
24: TEAE, Any class: number of participants [1]
1 (2.1) n (%): Participants with TEAE(s) (SAE): PT Bacterial infection [1] | Participants with TEAE(s) (SAE): PT Peripheral artery thrombosis [1] | Participants with TEAE(s) (SAE): PT Pneumonia bacterial [1] | Participants with TEAE(s) (SAE): PT Pseudomonas infection [1] | Participants with TEAE(s) (SAE): PT Pulmonary embolism [1] | Participants with TEAE(s) (SAE): SOC RESPIRATORY, THORACIC AND M[…] [1] | Participants with TEAE(s) (SAE): SOC VASCULAR DISORDERS [1]
2 (4.3) n (%): Participants with TEAE(s) (SAE): PT Condition aggravated [1] | Participants with TEAE(s) (SAE): SOC GENERAL DISORDERS AND ADMINISTRATION SITE CONDITIONS [1]
(8.5) %: TEAE, PT Diarrhoea: percentage of participants [1]
6: TEAE, PT Alanine aminotransferase increased: number of participants [1]
1 participants: participants with PCSAs in hemoglobin and hematocrits considered as TEAEs of anemia (600 mg)
6 (12.8) n (%): Participants with TEAE(s) (SAE): Any class [1]
4: TEAE, PT Diarrhoea: number of participants [1]
(2.1) %: TEAE, PT Anaemia: percentage of participants [1] | TEAE, PT Anxiety disorder: percentage of participants [1] | TEAE, PT Arterial injury: percentage of participants [1] | TEAE, PT Aspartate aminotransferase increased: percentage of participants [1] | TEAE, PT Back pain: percentage of participants [1] | TEAE, PT Bacterial infection: percentage of participants [1] | TEAE, PT Chest discomfort: percentage of participants [1] | TEAE, PT Constipation: percentage of participants [1] | TEAE, PT Dehydration: percentage of participants [1] | TEAE, PT Drug hypersensitivity: percentage of participants [1] | TEAE, PT Dyspnoea: percentage of participants [1] | TEAE, PT Emphysema: percentage of participants [1] | TEAE, PT Fatigue: percentage of participants [1] | TEAE, PT Flatulence: percentage of participants [1] | TEAE, PT Hyperglycaemia: percentage of participants [1] | TEAE, PT Hypertension: percentage of participants [1] | TEAE, PT Hypoglycaemia: percentage of participants [1] | TEAE, PT Hypophosphataemia: percentage of participants [1] | TEAE, PT Nausea: percentage of participants [1] | TEAE, PT Non-cardiac chest pain: percentage of participants [1] | TEAE, PT Oropharyngeal pain: percentage of participants [1] | TEAE, PT Peripheral artery thrombosis: percentage of participants [1] | TEAE, PT Pneumonia bacterial: percentage of participants [1] | TEAE, PT Pseudomembranous colitis: percentage of participants [1] | TEAE, PT Pseudomonas infection: percentage of participants [1]
grade 2: intensity of the majority of the TEAEs (600 mg)
(51.1) %: TEAE, Any class: percentage of participants [1]
